Data set [1] has as its system Alopecurus myosuroides (ALOMY). The data set can be described thus: Pre-emergence biological efficacy, glasshouse pot test. Format: in vivo. Particulars: 312 h. Put shortly:
(§1)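 Sow seeds in pots of standard soil; after one day in the glasshouse, spray test compound (1000 or 250 g/ha) in aqueous acetone/water with 0.5% Tween 20. Grow 13 days at 24/16 °C day/night, then score damage from 0 to 100.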

The test system of data set [2] is Amaranthus retoflexus (AMARE). The description is as above. Particulars: Amaranthus retroflexus, 312 h. Format: in vivo. In a few lines:
as §1

Data set [3] deals with Echinochloa crus-galli (ECHCG). The description is as above. The class given is in vivo. Particulars: 312 h. Put shortly:
as §1

For data set [4], the system named is Ipomea hederaceae (IPOHE). Described as above. Format: in vivo. Particulars: Ipomoea hederacea, 312 h. In a few lines: as §1
Data set [5] deals with Setaria faberi (SETFA). Described as above. Particulars: 312 h. Format: in vivo. Put shortly:
as §1

The test system of data set [6] is Solanum nigrum (SOLNI). The data set is described as above. Format: in vivo. The following applies: 312 h. In a few lines:
as §1

For data set [7], the system named is Alopecurus myosuroides (ALOMY). The data set can be described thus: Post-emergence biological efficacy, glasshouse pot test. Format: in vivo. Particulars: 312 h. Put shortly:
(§2)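 Scored 13 days after spraying on a 0 (no damage) to 100 (total damage) scale. Treatment was a post-emergence spray at 1000 or 250 g/ha, from acetone/water 50:50 plus 0.5% Tween 20, onto 8-day-old plants in soil pots. Growth at 24/16° C, 14 h photoperiod, 65% humidity, watered twice daily.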

For data set [8], the system named is Amaranthus retoflexus (AMARE). The data set is described as above. The class given is in vivo. Particulars: Amaranthus retroflexus, 312 h. In a few lines:
as §2

For data set [9], the system named is Echinochloa crus-galli (ECHCG). Described as above. The following applies: 312 h. The class given is in vivo. Put shortly:
as §2

Data set [10] has as its system Ipomea hederaceae (IPOHE). The data set is described as above. Format: in vivo. Particulars: Ipomoea hederacea, 312 h. In a few lines: as §2
In data set [11] the test system is Setaria faberi (SETFA). The data set is described as above. Particulars: 312 h. Format: in vivo. Put shortly:
as §2

The test system of data set [12] is Solanum nigrum (SOLNI). The description is as above. Format: in vivo. Particulars: 312 h. In a few lines:
as §2

[13] abbreviates: pre-emergence, rate 1,000 g/ha, evaluated after 13 days (100=total damage to plant; 0=no damage), read-out: Percentage damage caused to weed species, ALOMY.
The mark [14] stands for this setting: pre-emergence, rate 1,000 g/ha, evaluated after 13 days (100=total damage to plant; 0=no damage), read-out: Percentage damage caused to weed species, AMARE.
[15] abbreviates: pre-emergence, rate 1,000 g/ha, evaluated after 13 days (100=total damage to plant; 0=no damage), read-out: Percentage damage caused to weed species, ECHCG.
Setting [16] is: pre-emergence, rate 1,000 g/ha, evaluated after 13 days (100=total damage to plant; 0=no damage), read-out: Percentage damage caused to weed species, IPOHE.
The mark [17] stands for this setting: pre-emergence, rate 1,000 g/ha, evaluated after 13 days (100=total damage to plant; 0=no damage), read-out: Percentage damage caused to weed species, SETFA.
The mark [18] stands for this setting: pre-emergence, rate 1,000 g/ha, evaluated after 13 days (100=total damage to plant; 0=no damage), read-out: Percentage damage caused to weed species, SOLNI.
Setting [19] is: Rate 1,000 g/ha, post-emergence spray, evaluated after 13 days (100=total damage to plant; 0=no damage to plant), read-out: Percentage damage caused to weed species, post-emergence, ALOMY.
[20] abbreviates: Rate 1,000 g/ha, post-emergence spray, evaluated after 13 days (100=total damage to plant; 0=no damage to plant), read-out: Percentage damage caused to weed species, post-emergence, AMARE.
Setting [21] is: Rate 1,000 g/ha, post-emergence spray, evaluated after 13 days (100=total damage to plant; 0=no damage to plant), read-out: Percentage damage caused to weed species, post-emergence, ECHCG.
[22] abbreviates: Rate 1,000 g/ha, post-emergence spray, evaluated after 13 days (100=total damage to plant; 0=no damage to plant), read-out: Percentage damage caused to weed species, post-emergence, IPOHE.
[23] abbreviates: Rate 1,000 g/ha, post-emergence spray, evaluated after 13 days (100=total damage to plant; 0=no damage to plant), read-out: Percentage damage caused to weed species, post-emergence, SETFA.
Setting [24] is: Rate 1,000 g/ha, post-emergence spray, evaluated after 13 days (100=total damage to plant; 0=no damage to plant), read-out: Percentage damage caused to weed species, post-emergence, SOLNI.

The structures appear in SMILES notation.

`O=C(O)c1nc(C2CC2)nc(NCc2ccco2)c1Cl` [Compound 1-125, 5-chloro-2-cyclopropyl-4-(furan-2-ylmethylamino)-pyrimidine-6-carboxylic acid] came in with a melting point of 150 to 152 °C. Also, the pest or weed control at 1000 g/ha in data set [1] (pre-emergence, 1,000 g/ha, evaluated after 13 days (100=total damage; 0=no damage), read-out: Percentage damage ALOMY) is 60%. In [2] (pre-emergence, 1,000 g/ha, evaluated after 13 days (100=total damage; 0=no damage), read-out: Percentage damage AMARE), the pest or weed control at 1000 g/ha was 100%. For the same molecule, the pest or weed control at 1000 g/ha in [3] (pre-emergence, 1,000 g/ha, evaluated after 13 days (100=total damage; 0=no damage), read-out: Percentage damage ECHCG) was found to be 80%. The pest or weed control at 1000 g/ha in data set [4] (pre-emergence, 1,000 g/ha, evaluated after 13 days (100=total damage; 0=no damage), read-out: Percentage damage IPOHE) amounted to 100%. For the same molecule, the pest or weed control at 1000 g/ha in [5] (pre-emergence, 1,000 g/ha, evaluated after 13 days (100=total damage; 0=no damage), read-out: Percentage damage SETFA) is 70%. In addition, in [6] (pre-emergence, 1,000 g/ha, evaluated after 13 days (100=total damage; 0=no damage), read-out: Percentage damage SOLNI), the pest or weed control at 1000 g/ha stood at 100%. The pest or weed control at 1000 g/ha in [7] (post-emergence, 1,000 g/ha, evaluated after 13 days (100=total damage; 0=no damage), read-out: Percentage damage caused to weed species, ALOMY) was 60%. Also, the pest or weed control at 1000 g/ha in [8] (post-emergence, 1,000 g/ha, evaluated after 13 days (100=total damage; 0=no damage), read-out: Percentage damage caused to weed species, AMARE) turned out to be 100%. In addition, the pest or weed control at 1000 g/ha in [9] (post-emergence, 1,000 g/ha, evaluated after 13 days (100=total damage; 0=no damage), read-out: Percentage damage caused to weed species, ECHCG) was 70%. Besides, the pest or weed control at 1000 g/ha in [10] (post-emergence, 1,000 g/ha, evaluated after 13 days (100=total damage; 0=no damage), read-out: Percentage damage caused to weed species, IPOHE) worked out at 100%. Moreover, in data set [11] (post-emergence, 1,000 g/ha, evaluated after 13 days (100=total damage; 0=no damage), read-out: Percentage damage caused to weed species, SETFA), the pest or weed control at 1000 g/ha is 90%. Also, the pest or weed control at 1000 g/ha in data set [12] (post-emergence, 1,000 g/ha, evaluated after 13 days (100=total damage; 0=no damage), read-out: Percentage damage caused to weed species, SOLNI) came to 100%.

`C=Cc1c(NCc2ccco2)nc(C2CC2)nc1C(=O)OC` [Compound 31-125, 2-cyclopropyl-5-ethenyl-4-(furan-2-ylmethylamino)-6-methoxycarbonylpyrimidine] gave a melting point of 85 to 86 °C. Further, the pest or weed control at 1000 g/ha in data set [1] (setting [13]) amounted to 20%. Further, the pest or weed control at 1000 g/ha in [2] (setting [14]) amounted to 90%. In addition, the pest or weed control at 1000 g/ha in data set [3] (setting [15]) turned out to be 20%. Further, in [4] (setting [16]), the pest or weed control at 1000 g/ha turned out to be 100%. Also, the pest or weed control at 1000 g/ha in data set [5] (setting [17]) stood at 20%. For the same molecule, the pest or weed control at 1000 g/ha in data set [6] (setting [18]) came out at 80%. In data set [7] (setting [19]), the pest or weed control at 1000 g/ha amounted to 10%. In addition, the pest or weed control at 1000 g/ha in data set [8] (setting [20]) amounted to 90%. For the same molecule, in [9] (setting [21]), the pest or weed control at 1000 g/ha was determined as 0%. In data set [10] (setting [22]), the pest or weed control at 1000 g/ha is 50%. Besides, in [11] (setting [23]), the pest or weed control at 1000 g/ha was 10%. The pest or weed control at 1000 g/ha in data set [12] (setting [24]) stood at 80%.

In the case of `COC(=O)c1nc(-c2ccc(Cl)cc2)nc(NCc2ccco2)c1Cl` [Compound 40-125, 5-chloro-2-(4-chlorophenyl)-4-(furan-2-ylmethylamino)-6-methoxycarbonylpyrimidine], the melting point lay within 132 to 134 °C. Also, in [1] (setting [13]), the pest or weed control at 1000 g/ha amounted to 40%. Also, in [2] (setting [14]), the pest or weed control at 1000 g/ha is 100%. Besides, the pest or weed control at 1000 g/ha in [3] (setting [15]) turned out to be 50%. Also, in data set [4] (setting [16]), the pest or weed control at 1000 g/ha was 20%. In addition, in data set [5] (setting [17]), the pest or weed control at 1000 g/ha was 40%. Besides, the pest or weed control at 1000 g/ha in data set [6] (setting [18]) was 80%. Besides, the pest or weed control at 1000 g/ha in [7] (setting [19]) stood at 50%. Besides, the pest or weed control at 1000 g/ha in data set [8] (setting [20]) worked out at 100%. Further, the pest or weed control at 1000 g/ha in data set [9] (setting [21]) stood at 70%. In [10] (setting [22]), the pest or weed control at 1000 g/ha came to 90%. Moreover, the pest or weed control at 1000 g/ha in data set [11] (setting [23]) came out at 90%. Also, in data set [12] (setting [24]), the pest or weed control at 1000 g/ha came to 90%.

As for `O=C(NCc1ccccc1)c1nc(C2CC2)nc(NCc2ccccc2)c1Cl` [Compound 265-1, 5-chloro-2-cyclopropyl-4-phenylmethylamino-6-phenylmethylaminocarbonyl pyrimidine], the pest or weed control at 1000 g/ha in data set [1] (setting [13]) came out at 0%; in data set [2] (setting [14]), 30%; in data set [3] (setting [15]) it was 0%; in data set [4] (setting [16]), 0%; in data set [5] (setting [17]) it was 0%; in data set [6] (setting [18]), 10%. The pest or weed control at 1000 g/ha in data set [7] (setting [19]) is 10%; in data set [8] (setting [20]) it was 80%; in data set [9] (setting [21]), 0%; in [10] (setting [22]), 70%; in data set [11] (setting [23]), 0%; in [12] (setting [24]), 50%.

`O=C(NCc1ccco1)c1nc(C2CC2)nc(NCc2ccco2)c1Cl` [Compound 265-3, 5-Chloro-2-cyclopropyl-4-(furan-2-ylmethylamino)-6-(furan-2-yl-methylamino-carbonyl)-pyrimidine]: the pest or weed control at 1000 g/ha in data set [1] (setting [13]) stood at 20%; in data set [2] (setting [14]) it was 60%; in data set [3] (setting [15]), 30%; in data set [4] (setting [16]), 90%; in data set [5] (setting [17]), 40%; in data set [6] (setting [18]) it was 60%. In addition, the pest or weed control at 1000 g/ha in [7] (setting [19]) was found to be 20%; in data set [8] (setting [20]), 70%; in data set [9] (setting [21]), 30%; in [10] (setting [22]), 70%; in [11] (setting [23]), 20%; in [12] (setting [24]), 70%.

As to `O=C(NCc1cccs1)c1nc(C2CC2)nc(NCc2cccs2)c1Cl` [Compound 265-4, 5-Chloro-2-cyclopropyl-4-(thiophen-2-ylmethylamino)-6-(thiophen-2-yl-methylamino-carbonyl)-pyrimidine], the pest or weed control at 1000 g/ha in data set [1] (setting [13]) was determined as 0%; in data set [2] (setting [14]) it was 20%; in [3] (setting [15]) it was 0%; in data set [4] (setting [16]), 0%; in [5] (setting [17]) it was 0%; in [6] (setting [18]), 0%. Also, the pest or weed control at 1000 g/ha turned out to be 20% in [7] (setting [19]); 50% in data set [8] (setting [20]); 20% in [9] (setting [21]); 50% in data set [10] (setting [22]); 20% in data set [11] (setting [23]); 50% in data set [12] (setting [24]).

Consider `Cc1c(NCC2CC2)nc(C2CC2)nc1OCC(=O)NCC1CC1` [Compound 266-20, 2-cyclopropyl-4-cyclopropylmethylamino-6-cyclopropylmethylaminocarbonylmethoxy-5-methylpyrimidine], for which the pest or weed control at 1000 g/ha is 0% in data set [1] (setting [13]); 100% in [2] (setting [14]); 0% in [3] (setting [15]); 40% in data set [4] (setting [16]); 0% in [5] (setting [17]); 50% in [6] (setting [18]). Also, the pest or weed control at 1000 g/ha in data set [7] (setting [19]) is 0%; in [8] (setting [20]), 90%; in data set [9] (setting [21]), 0%; in data set [10] (setting [22]), 70%; in data set [11] (setting [23]), 0%; in data set [12] (setting [24]), 80%.

(Values after patent US20110086759A1, “CHEMICAL COMPOUNDS” (SYNGENTA CROP PROTECTION, INC., priority 2007, published 2011).)
